Test results as given in patent US8765809B2, “Ester derivative and use thereof” (Ajinomoto Co., Inc., priority 2006, dated 2014).

Tested on: auricle of hairless mouse
Experiment: Measurement of external blood circulation enhancing action: vasodilatory effect (red spots) after application to the ear
Assay type: in vivo, hairless mouse (HR-1, female)
Set-up: key to Vasodilatory effect for hairless mouse (red spots) / Vasodilatory effect on hairless mouse (red spots): O: clear red spots is confirmed; Δ: weak red spots is confirmed; x: no development of red spots
Settings: for Vasodilatory effect on hairless mouse (red spots) / red spots observed (note, words) / red spots almost disappeared at / weak red spots were observed at, time after application / red spots were observed at, time after application / red spots at 1 hr after application: 5 wt % (ethanol); for vasodilatory / blood circulation enhancing effect, summary in words: summary of Tables 2 to 4; for red spots at 1 hr after application: 1 hr later
Excerpt: The compound of each Example, capsinoid derivative and capsaicin were compared for vasodilatory effect using auricle of hairless mouse. A sample was applied to the right ear of hairless mouse (HR-1, female), and a control was applied to the left ear. […]

[1] = 5 wt % (liquid paraffin) as printed, second column of Table 2
[2] = 5 wt % (liquid paraffin), first column of Table 2
[3] = application of 5 wt % in liquid paraffin

| SMILES | Vasodilatory effect on hairless mouse (red spots) | Vasodilatory effect for hairless mouse (red spots) [1] | Vasodilatory effect for hairless mouse (red spots) [2] | red spots disappeared in [3] | vasodilatory / blood circulation enhancing effect, summary in words | also measured |
| --- | --- | --- | --- | --- | --- | --- |
| COc1cc(CNC(=O)CCCC/C=C/C(C)C)ccc1O [capsaicin, reference compound] | ∘ | ∘ | ∘ |  |  | Vasodilatory effect for hairless mouse (red spots) (0.005 wt % (ethanol)): Δ; Vasodilatory effect for hairless mouse (red spots) (0.05 wt % (ethanol)): ∘; Vasodilatory effect for hairless mouse (red spots) (0.5 wt % (ethanol)): ∘; red spots observed (note, words): Strong red spots were observed.; red spots were observed even after lapse of (application of 1 wt % in liquid paraffin): lapse of 2 hr |
| COc1cc(COC(=O)CCCC/C=C/C(C)C)ccc1O [capsiate, 4-hydroxy-3-methoxybenzyl (E)-8-methyl-6-nonenoate, reference compound] | ∘ | Δ | ∘ |  |  | red spots observed (note, words): Clear red spots were observed.; weak red spots were observed even after lapse of [3]: lapse of 90 min |
| COc1cc(CCCOC(=O)CCCCCCC(C)C)ccc1O [compound J, 3-(3-methoxy-4-hydroxyphenyl)propyl 8-methylnonanoate] | x |  | x |  |  | blood circulation enhancing effect (note, words) [3]: Application of 5 wt %: no blood |
| COc1cc(CCCOC(=O)CCCCCC(C)C)ccc1O [compound J-1, 3-(3-methoxy-4-hydroxyphenyl)propyl 7-methyloctanoate] | ∘ | x | Δ | spots disappeared in 1 hr | weak blood circulation enhancing effect | red spots almost disappeared at: almost disappeared at 30 min later.; weak red spots were observed at, time after application: Weak red spots were observed at 10 min |
| COc1cc(CCCOC(=O)CCCCC(C)C)ccc1O [compound J-2, 3-(3-methoxy-4-hydroxyphenyl)propyl 6-methylheptanoate] | ∘ | x | Δ | spots disappeared in 1 hr | weak blood circulation enhancing effect | red spots almost disappeared at: almost disappeared at 30 min later.; weak red spots were observed at, time after application: Weak red spots were observed at 10 min |
| COc1cc(CCCOC(=O)CCCC(C)C)ccc1O [compound J-3, 3-(3-methoxy-4-hydroxyphenyl)propyl 5-methylhexanoate] | ∘ | x | Δ | spots disappeared in 1 hr | weak blood circulation enhancing effect | red spots almost disappeared at: almost disappeared at 30 min later.; weak red spots were observed at, time after application: Weak red spots were observed at 10 min |
| COc1cc(CCCOC(=O)CCC(C)C)ccc1O [compound J-4, 3-(3-methoxy-4-hydroxyphenyl)propyl 4-methylpentanoate] | ∘ | x | Δ | spots disappeared in 1 hr | weak blood circulation enhancing effect | red spots almost disappeared at: almost disappeared at 30 min later.; weak red spots were observed at, time after application: Weak red spots were observed at 10 min |
| CCCCCC(=O)OCCCc1ccc(O)c(OC)c1 [compound J-5, 3-(3-methoxy-4-hydroxyphenyl)propyl n-hexanoate] | Δ | x | Δ | spots disappeared in 1 hr | weak blood circulation enhancing effect | red spots almost disappeared at: almost disappeared at 30 min later.; weak red spots were observed at, time after application: Weak red spots were observed at 10 min |
| COc1cc(CC(=O)OCCCCCCCC(C)C)ccc1O [compound K, 8-methylnonyl homovanillate] |  |  | ∘ |  | potent vasodilatory effect | weak red spots were observed even after lapse of [3]: lapse of 2 hr |
| COc1cc(CC(=O)OCCCCCCC(C)C)ccc1O [compound K-1, 7-methyloctyl homovanillate] |  | ∘ | ∘ |  | potent vasodilatory effect | Vasodilatory effect for hairless mouse (red spots) (0.005 wt % (ethanol)): Δ; Vasodilatory effect for hairless mouse (red spots) (0.05 wt % (ethanol)): ∘; Vasodilatory effect for hairless mouse (red spots) (0.5 wt % (ethanol)): ∘; red spots were observed even after lapse of [3]: lapse of 90 min |
| CC[C@H](C)CCCCCOC(=O)Cc1ccc(O)c(OC)c1 [compound K-2, (S)-(+)-6-methyloctyl homovanillate] |  | ∘ | ∘ |  | potent vasodilatory effect | Vasodilatory effect for hairless mouse (red spots) (0.005 wt % (ethanol)): Δ; Vasodilatory effect for hairless mouse (red spots) (0.05 wt % (ethanol)): ∘; Vasodilatory effect for hairless mouse (red spots) (0.5 wt % (ethanol)): ∘; red spots were observed even after lapse of [3]: lapse of 90 min |
| COc1cc(CC(=O)OCCCCCC(C)C)ccc1O [compound K-3, 6-methylheptyl homovanillate] |  | ∘ | ∘ |  | potent vasodilatory effect | Vasodilatory effect for hairless mouse (red spots) (0.005 wt % (ethanol)): Δ; Vasodilatory effect for hairless mouse (red spots) (0.05 wt % (ethanol)): ∘; Vasodilatory effect for hairless mouse (red spots) (0.5 wt % (ethanol)): ∘; red spots were observed even after lapse of [3]: lapse of 90 min |
| COc1cc(CCC(=O)OCCCCCCCC(C)C)ccc1O [compound L, 8-methylnonyl 3-(4-hydroxy-3-methoxyphenyl)propionate] |  |  | ∘ |  | potent vasodilatory effect | red spots were observed even after lapse of [3]: lapse of 90 min |
| COc1cc(CCC(=O)OCCCCCCC(C)C)ccc1O [compound L-1, 7-methyloctyl 3-(4-hydroxy-3-methoxyphenyl)propionate] | ∘ | Δ | ∘ | spots disappeared in 1 hr | potent vasodilatory effect | red spots were observed at, time after application: Red spots were observed at 5 min; red spots at 1 hr after application: thin red spots remained. L-4 showed |
| COc1cc(CCC(=O)OCCCCCC(C)C)ccc1O [compound L-2, 6-methylheptyl 3-(4-hydroxy-3-methoxyphenyl)propionate] | ∘ | Δ | ∘ | spots disappeared in 1 hr | potent vasodilatory effect | red spots were observed at, time after application: Red spots were observed at 5 min; red spots at 1 hr after application: thin red spots remained. L-4 showed |
| COc1cc(CCC(=O)OCCCCC(C)C)ccc1O [compound L-3, 5-methylhexyl 3-(4-hydroxy-3-methoxyphenyl)propionate] | ∘ | Δ | ∘ | spots disappeared in 1 hr | potent vasodilatory effect | red spots were observed at, time after application: Red spots were observed at 5 min; red spots at 1 hr after application: thin red spots remained. L-4 showed |
| CC[C@H](C)CCCCCOC(=O)CCc1ccc(O)c(OC)c1 [compound L-4, (S)-(+)-6-methyloctyl 3-(4-hydroxy-3-methoxyphenyl)propionate] | ∘ | ∘ | ∘ |  | potent vasodilatory effect | red spots were observed at, time after application: Red spots were observed at 5 min; red spots at 1 hr after application: strong red spots after 1 hr.; weak red spots were observed even after lapse of [3]: lapse of 1 hr |
| COc1cc(/C=C/C(=O)OCCCCCCCC(C)C)ccc1O [compound Q-1, 8-methylnonyl ferulate] | x |  | x |  |  | blood circulation enhancing effect (note, words) [3]: Application of 5 wt %: no blood |
| COc1cc(/C=C/C(=O)OCCCCCCC(C)C)ccc1O [compound Q-2, 7-methyloctyl ferulate] | x |  | x |  |  | blood circulation enhancing effect (note, words) [3]: Application of 5 wt %: no blood |
| COc1cc(/C=C/C(=O)OCCCCCC(C)C)ccc1O [compound Q-3, 6-methylheptyl ferulate] | x |  | x |  |  | blood circulation enhancing effect (note, words) [3]: Application of 5 wt %: no blood |
| COc1cc(COC(=O)CCCCCCC(C)C)ccc1O [dihydrocapsiate, 4-hydroxy-3-methoxybenzyl 8-methylnonanoate, reference compound] |  | Δ | ∘ |  |  | weak red spots were observed even after lapse of [3]: lapse of 90 min |
| COc1cc(COC(=O)CCCCCC(C)C)ccc1O [nordihydrocapsiate, 4-hydroxy-3-methoxybenzyl 7-methyl-octanoate, reference compound] |  | Δ | ∘ |  |  | weak red spots were observed even after lapse of [3]: lapse of 90 min |
